Values after ≈ are worked out from the molar mass of the structure shown.
Experiments:
Aspergillus fumigatus = experiment: Antifungal activity against Aspergillus fumigatus assessed as inhibition of fungal growth by serial dilution method; assay type: functional
Cryptococcus neoformans = experiment: Antifungal activity against Cryptococcus neoformans assessed as inhibition of fungal growth by serial dilution method; assay type: functional
Nannizzia gypsea = experiment: Antifungal activity against Microsporum gypseum assessed as inhibition of fungal growth by serial dilution method; assay type: functional
Staphylococcus aureus [1] = experiment: Antibacterial activity against Staphylococcus aureus assessed as inhibition of bacterial growth incubated for 24 hrs; assay type: functional
Caulobacter vibrioides = experiment: Antibacterial activity against Caulobacter crescentus assessed as inhibition of bacterial growth incubated for 24 hrs; assay type: functional
Bacillus subtilis [2] = experiment: Antibacterial activity against Bacillus subtilis assessed as inhibition of bacterial growth incubated for 20 hrs by broth microdilution method; assay type: functional
Staphylococcus aureus [3] = experiment: Antibacterial activity against methicillin-resistant Staphylococcus aureus assessed as inhibition of bacterial growth incubated for 20 hrs by broth microdilution method; assay type: functional
Escherichia coli [4] = experiment: Antibacterial activity against Escherichia coli expressing blaNDM-1 gene assessed as inhibition of bacterial growth incubated for 20 hrs by broth microdilution method; assay type: functional
Escherichia coli [5] = experiment: Antibacterial activity against wild type Escherichia coli assessed as inhibition of bacterial growth incubated for 20 hrs by broth microdilution method; assay type: functional
Escherichia coli [6] = experiment: Antibacterial activity against Escherichia coli expressing recombinant blaNDM-1 gene assessed as inhibition of bacterial growth incubated for 20 hrs by broth microdilution method; assay type: functional
Klebsiella pneumoniae = experiment: Antibacterial activity against Klebsiella pneumoniae assessed as inhibition of bacterial growth incubated for 20 hrs by broth microdilution method; assay type: functional
Staphylococcus aureus [7] = experiment: Antibacterial activity against wild type Staphylococcus aureus assessed as inhibition of bacterial growth incubated for 20 hrs by broth microdilution method; assay type: functional
Bacillus subtilis [8] = experiment: Antibacterial activity against Bacillus subtilis 168 assessed as inhibition of bacterial growth by microdilution assay; assay type: functional
Moraxella catarrhalis = experiment: Antibacterial activity against Moraxella catarrhalis ATCC 43617 assessed as inhibition of bacterial growth by microdilution assay; assay type: functional
Staphylococcus simulans = experiment: Antibacterial activity against Staphylococcus simulans 22 assessed as inhibition of bacterial growth by microdilution assay; assay type: functional
Staphylococcus aureus [9] = experiment: Antibacterial activity against Staphylococcus aureus ATCC 29213 assessed as inhibition of bacterial growth by microdilution assay; assay type: functional
Enterococcus faecium = experiment: Antibacterial activity against Enterococcus faecium BM 4147 assessed as inhibition of bacterial growth by microdilution assay; assay type: functional
Staphylococcus aureus [10] = experiment: Antimicrobial activity against methicillin-resistant Staphylococcus aureus assessed as inhibition of microbial growth incubated for 18 to 20 hrs by broth microdilution method; assay type: functional; conditions: time 18-20 hrs
Candida albicans [11] = experiment: Antimicrobial activity against Candida albicans assessed as inhibition of microbial growth incubated for 18 to 20 hrs by broth microdilution method; assay type: functional; conditions: time 18-20 hrs
[12] = tested on: Mycolicibacterium smegmatis; experiment: Antimicrobial activity against Mycobacterium smegmatis assessed as inhibition of microbial growth incubated for 18 to 20 hrs by broth microdilution method; assay type: functional; conditions: time 18-20 hrs
Bacillus mycoides = experiment: Antimicrobial activity against Bacillus mycoides assessed as inhibition of microbial growth incubated for 18 to 20 hrs by broth microdilution method; assay type: functional; conditions: time 18-20 hrs
Staphylococcus aureus [13] = experiment: Antibacterial activity against Staphylococcus aureus assessed as zone of inhibition incubated for 24 hrs by disk diffusion method; assay type: functional
Pseudomonas aeruginosa = experiment: Antibacterial activity against Pseudomonas aeruginosa assessed as zone of inhibition incubated for 24 hrs by disk diffusion method; assay type: functional
Staphylococcus aureus [14] = experiment: Antibacterial activity against methicillin-resistant Staphylococcus aureus assessed as inhibition of bacterial growth incubated for 24 hrs by two-fold serial dilution assay; assay type: functional
Staphylococcus aureus [15] = experiment: Antibacterial activity against methicillin-sensitive Staphylococcus aureus assessed as inhibition of bacterial growth incubated for 24 hrs by two-fold serial dilution assay; assay type: functional
Candida albicans [16] = experiment: Antifungal activity against Candida albicans SC5314 assessed as inhibition of fungal growth incubated for 24 hrs by microtiter plate reader assay; assay type: functional
Bacillus subtilis [17] = experiment: Antibacterial activity against Bacillus subtilis assessed as inhibition of bacterial growth; assay type: functional
Staphylococcus aureus [18] = experiment: Antibacterial activity against Staphylococcus aureus assessed as inhibition of bacterial growth; assay type: functional, organism-based
Staphylococcus aureus [19] = experiment: Antimicrobial activity against methicillin-resistant Staphylococcus aureus assessed as inhibition of microbial growth incubated for 18 hrs by agar diffusion method; assay type: functional
Staphylococcus aureus [20] = experiment: Antimicrobial activity against Staphylococcus aureus assessed as inhibition of microbial growth incubated for 18 hrs by agar diffusion method; assay type: functional
Proteus vulgaris = experiment: Antimicrobial activity against Proteus vulgaris NCIM 2813 assessed as zone of inhibition incubated for 24 hrs by agar diffusion method; assay type: functional
Escherichia coli [21] = experiment: Antimicrobial activity against Escherichia coli NCIM 2065 assessed as zone of inhibition incubated for 24 hrs by agar diffusion method; assay type: functional
Staphylococcus aureus [22] = experiment: Antimicrobial activity against Staphylococcus aureus NCIM 2120 assessed as zone of inhibition incubated for 24 hrs by agar diffusion method; assay type: functional
Candida albicans [23] = experiment: Antimicrobial activity against Candida albicans assessed as zone of inhibition incubated for 24 hrs by agar diffusion method; assay type: functional
[24] = Cytotoxicity against green monkey Vero cells; assay type: toxicity, cell-based; conditions: green monkey (Chlorocebus sabaeus)
[25] = tested on: Mycobacterium tuberculosis; experiment: Antibacterial activity against Mycobacterium tuberculosis H37Rv assessed as inhibition of bacterial growth by two-fold serial dilution method; assay type: functional
Nakaseomyces glabratus = experiment: Antifungal activity against Candida glabrata ATCC 90030 assessed as inhibition of fungal growth incubated for 24 hrs by microtiter plate reader assay; assay type: functional

## Cc1ccc2c(c1)c1c(n2CCCNCc2ccccc2)CCCC1
Aspergillus fumigatus
  MIC80: 32 µg/mL (≈ 96.2 µM)
Cryptococcus neoformans
  MIC80: 1 µg/mL (≈ 3.01 µM)
Nannizzia gypsea
  MIC80: 0.016 µg/mL (≈ 0.0481 µM)

## OCC(CO)(CO)NCC(O)Cn1c2ccc(Cl)cc2c2cc(Cl)ccc21 (configuration not stated)
Staphylococcus aureus [1]
  MIC: 50 µM (≈ 20.7 µg/mL)
Caulobacter vibrioides
  MIC: 15 µM (≈ 6.2 µg/mL)

## Fc1cc(F)c2c(c1)[nH]c1ccc(F)cc12
Bacillus subtilis [2]
  MIC: 1.5 µg/mL (≈ 6.78 µM)
Staphylococcus aureus [3]
  MIC: 1.5 µg/mL (≈ 6.78 µM)
Escherichia coli [4]
  MIC: 1.5 µg/mL (≈ 6.78 µM)
Escherichia coli [5]
  MIC: 1.5 µg/mL (≈ 6.78 µM)
Escherichia coli [6]
  MIC: 1.5 µg/mL
Klebsiella pneumoniae
  MIC: 1.5 µg/mL (≈ 6.78 µM)
Staphylococcus aureus [7]
  MIC: 1.5 µg/mL (≈ 6.78 µM)

## c1ccc(CCNC2CCCc3c2[nH]c2ccc(C4CCCCC4)cc32)cc1 (configuration not stated)
Bacillus subtilis [8]
  MIC: 2 µg/mL (≈ 5.37 µM)
Moraxella catarrhalis
  MIC: 1 µg/mL (≈ 2.68 µM)
Staphylococcus simulans
  MIC: 2 µg/mL (≈ 5.37 µM)
Staphylococcus aureus [9]
  MIC: 2 µg/mL (≈ 5.37 µM)
Enterococcus faecium
  MIC: 2 µg/mL (≈ 5.37 µM)

## COc1ccc2[nH]c3c(O)cccc3c2c1Cl
Staphylococcus aureus [10]
  MIC: 32 µg/mL
Candida albicans [11]
  MIC: 32 µg/mL
[12]
  MIC: 32 µg/mL
Bacillus mycoides
  MIC: 32 µg/mL

## CCOc1nc2c(c(-c3cccs3)c1C(N)=O)CCc1c-2[nH]c2ccc(Cl)cc12
Staphylococcus aureus [13]
  inhibition zone (IZ): 1.1 cm
Pseudomonas aeruginosa
  inhibition zone (IZ): 2.1 cm

## N#Cc1ccc2c(c1)[nH]c1c(-c3c[nH]c4ccc(C#N)cc34)ccc(-c3c[nH]c4ccc(C#N)cc34)c12
Staphylococcus aureus [14]
  MIC: 8 µg/mL (≈ 16.9 µM)
Staphylococcus aureus [15]
  MIC: 16 µg/mL (≈ 33.9 µM)

## Clc1ccc2[nH]c3c(c2c1)CCCC3NCc1ccc(-c2ccccc2)cc1 (configuration not stated)
Candida albicans [16]
  MIC50: 6.8 µM (≈ 2.63 µg/mL)

## COC12C(=O)N(C)C(=O)C1(OC)c1c([nH]c3cc(Cl)ccc13)-c1[nH]c3cc(Cl)ccc3c12 (configuration not stated)
Bacillus subtilis [17]
  MIC: 3.1 µg/mL (≈ 6.59 µM)
Staphylococcus aureus [18]
  MIC: 3.1 µg/mL (≈ 6.59 µM)

## CC(C)=CC1OC(=O)c2cc(O)c3[nH]c4ccccc4c3c21 (configuration not stated)
Staphylococcus aureus [19]
  MIC: 64 µg/mL
Staphylococcus aureus [20]
  MIC: 64 µg/mL

## Cn1c2ccccc2c2cc(/C=C/C(=O)c3ccc([N+](=O)[O-])cc3)ccc21
Proteus vulgaris
  inhibition zone (IZ): 4 mm
Escherichia coli [21]
  inhibition zone (IZ): 2.5 mm
Staphylococcus aureus [22]
  inhibition zone (IZ): 4.5 mm
Candida albicans [23]
  inhibition zone (IZ): 5 mm

## COc1ccc2[nH]c3c(OCc4ccccc4)cc(C)cc3c2c1
[24]
  IC50: > 128 µM
[25]
  MIC90: 31.7 µg/mL (≈ 99.9 µM)

## FC(F)(F)Oc1ccc2c3c([nH]c2c1)C(NCCOc1ccc(Cl)cc1)CCC3 (configuration not stated)
Nakaseomyces glabratus
  MIC50: 5.3 µM (≈ 2.25 µg/mL)

Source: ChEMBL document CHEMBL5532637, “Antimicrobial activity of natural and semi-synthetic carbazole alkaloids” (Eur J Med Chem, 2023)
